From ChEMBL document CHEMBL5346977, “Discovery of Novel d-(+)-Biotin-Conjugated Resorcinol Dibenzyl Ether-Based PD-L1 Inhibitors for Targeted Cancer Immunotherapy” (J Med Chem, 2023)
The source made the active and inactive calls. No cut-off for these calls is given here.

Columns and labels:
[1] = target: Programmed cell death protein 1/Programmed cell death 1 ligand 1 (Homo sapiens) (UniProt Q15116+Q9NZQ7); assay: Inhibition of GST-tagged PD-1 (unknown origin)/His-tagged PD-L1 (unknown origin) interaction at 10 nM by HTRF binding assay relative to control; type: protein-complex assay
[2] = target: T1, Programmed cell death 1 ligand 1 (Mus musculus, UniProt Q9EP73); assay: Binding affinity to mouse PD-L1 assessed as dissociation constant by SPR analysis
T1 sequence (Q9EP73 whole entry): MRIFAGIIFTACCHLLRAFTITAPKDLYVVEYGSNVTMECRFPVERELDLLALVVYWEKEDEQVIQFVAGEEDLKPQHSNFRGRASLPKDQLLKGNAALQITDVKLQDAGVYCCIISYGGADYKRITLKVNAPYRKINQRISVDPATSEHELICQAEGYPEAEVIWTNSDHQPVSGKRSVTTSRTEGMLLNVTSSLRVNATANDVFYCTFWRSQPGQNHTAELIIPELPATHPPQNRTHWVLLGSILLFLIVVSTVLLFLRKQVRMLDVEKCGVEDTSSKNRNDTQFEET

[3] = target: T1, Programmed cell death 1 ligand 1; assay: Binding affinity to mouse PD-L1 assessed as dissociation constant by MST analysis
[4] = system: HepG2; assay: Antitumor activity against human HepG2 cells assessed as reduction in cell viability at 1.1 to 10 uM incubated for 48 hrs by CCK-8 assay; type: functional, cell-based; details: dose 1.1-10 µM
[5] = target: Programmed cell death protein 1/Programmed cell death 1 ligand 1 (Homo sapiens, UniProt Q9NZQ7); assay: Inhibition of interaction of PD-1 (unknown origin) expressed in Jurkat T cells carrying luciferase reporter under the control of NFAT promoter/PD-L1 (unknown origin) expressed in CHO cells co-expressing TCR ligand and T-cell surrogate pretreated with CHO cells for 0.5 hrs followed by Jurkat T cell addition and measured after 5 hrs by luminescence based analysis
Programmed cell death protein 1/Programmed cell death 1 ligand 1, sequence (Q15116 whole entry): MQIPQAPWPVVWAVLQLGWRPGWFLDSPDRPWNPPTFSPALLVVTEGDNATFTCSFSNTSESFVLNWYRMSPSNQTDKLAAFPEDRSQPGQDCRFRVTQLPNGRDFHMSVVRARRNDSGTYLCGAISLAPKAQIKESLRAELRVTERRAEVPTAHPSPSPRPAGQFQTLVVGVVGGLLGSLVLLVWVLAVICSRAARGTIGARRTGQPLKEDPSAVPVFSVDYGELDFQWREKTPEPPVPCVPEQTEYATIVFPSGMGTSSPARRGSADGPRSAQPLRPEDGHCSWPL
Programmed cell death protein 1/Programmed cell death 1 ligand 1, sequence (Q9NZQ7 whole entry): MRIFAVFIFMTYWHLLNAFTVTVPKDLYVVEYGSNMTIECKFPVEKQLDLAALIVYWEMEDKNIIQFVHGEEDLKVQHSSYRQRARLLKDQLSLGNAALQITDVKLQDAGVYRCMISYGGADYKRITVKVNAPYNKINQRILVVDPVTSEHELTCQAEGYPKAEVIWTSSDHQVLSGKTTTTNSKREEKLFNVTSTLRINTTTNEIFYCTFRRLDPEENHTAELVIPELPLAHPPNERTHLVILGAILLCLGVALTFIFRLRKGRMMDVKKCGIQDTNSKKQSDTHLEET

[6] = AUC (0 to t) in Sprague-Dawley rat at 1 mg/kg, iv administered as single dose and measured after 48 hrs by HPLC-MS/MS analysis; type: ADME, organism-based; parameters: dose 1 mg/kg, time 48 hrs, route iv; details: in vivo
[7] = MRT (0 to infinity) in Sprague-Dawley rat at 20 mg/kg, po measured after 48 hrs by HPLC-MS/MS analysis; type: ADME, organism-based; details: in vivo
[8] = Half-life in Sprague-Dawley rat at 20 mg/kg, po measured after 48 hrs by HPLC-MS/MS analysis; type: ADME, organism-based; details: in vivo
[9] = MRT (0 to infinity) in C57BL/6 mouse at 50 mg/kg, ip measured after 4 hrs by HPLC-MS/MS analysis; type: ADME, organism-based; details: in vivo
[10] = Tmax in C57BL/6 mouse at 50 mg/kg, ip measured after 4 hrs by HPLC-MS/MS analysis; type: ADME, organism-based; details: in vivo
[11] = Apparent volume of distribution in C57BL/6 mouse at 50 mg/kg, ip measured after 4 hrs by HPLC-MS/MS analysis; type: ADME, organism-based; details: in vivo
[12] = Cmax in C57BL/6 mouse at 50 mg/kg, ip measured after 4 hrs by HPLC-MS/MS analysis; type: ADME, organism-based; parameters: dose 50 mg/kg, time 4 hrs, route ip; details: in vivo
[13] = system: B16-F10; assay: Antitumor activity against mouse B16-F10 cells implanted in BALB/c mouse assessed as reduction in tumor volume at 50 mg/kg, ip administered once daily for 14 days relative to control; type: functional; parameters: scale not given: the % may be the effect or the level left; details: time 14 day
[14] = system: B16-F10; assay: Antitumor activity against mouse B16-F10 cells implanted in syngeneic C57BL/6 mouse assessed as inhibition of tumor growth at 50 mg/kg, ip measured after 12 days; type: functional, organism-based; details: time 12.0 day
[15] = system: B16-F10; assay: Antitumor activity against mouse B16-F10 cells implanted in syngeneic C57BL/6 mouse assessed as decrease in tumor weight at 50 mg/kg, ip measured after 12 days relative to control; type: functional; parameters: scale not given: the % may be the effect or the level left; details: time 12 day
[16] = Toxicity in syngeneic C57BL/6 mouse implanted with mouse B16-F10 cells assessed as effect on body weight at 50 mg/kg, ip measured after 12 days; type: organism-based; details: in vivo, 288 h, time 12 day
[17] = Drug concentration in spleen of C57BL/6 mouse implanted with mouse B16-F10 cells at 50 mg/kg, ip measured after 0.5 hrs by UPLC-MS/MS analysis; type: ADME, organism-based; details: read-out: Ct
[18] = Drug concentration in kidney of C57BL/6 mouse implanted with mouse B16-F10 cells at 50 mg/kg, ip measured after 0.5 hrs by UPLC-MS/MS analysis; type: ADME, organism-based; details: read-out: Ct
[19] = Drug concentration in brain of C57BL/6 mouse implanted with mouse B16-F10 cells at 50 mg/kg, ip measured after 0.5 hrs by UPLC-MS/MS analysis; type: ADME, organism-based; details: read-out: Ct
[20] = Drug concentration in plasma of C57BL/6 mouse implanted with mouse B16-F10 cells at 50 mg/kg, ip measured after 0.5 hrs by UPLC-MS/MS analysis; type: ADME, organism-based
[21] = Drug concentration in heart of C57BL/6 mouse implanted with mouse B16-F10 cells at 50 mg/kg, ip measured after 1 hrs by UPLC-MS/MS analysis; type: ADME, organism-based; details: read-out: Ct
[22] = Drug concentration in liver of C57BL/6 mouse implanted with mouse B16-F10 cells at 50 mg/kg, ip measured after 1 hrs by UPLC-MS/MS analysis; type: ADME, organism-based; details: read-out: Ct
[23] = Drug concentration in lung of C57BL/6 mouse implanted with mouse B16-F10 cells at 50 mg/kg, ip measured after 1 hrs by UPLC-MS/MS analysis; type: ADME, organism-based; details: read-out: Ct
[24] = Drug concentration in kidney of C57BL/6 mouse implanted with mouse B16-F10 cells at 50 mg/kg, ip measured after 1 hrs by UPLC-MS/MS analysis; type: ADME, organism-based; details: read-out: Ct
[25] = Drug concentration in tumor of C57BL/6 mouse implanted with mouse B16-F10 cells at 50 mg/kg, ip measured after 1 hrs by UPLC-MS/MS analysis; type: ADME, organism-based, Neoplasm; details: read-out: Ct
[26] = Drug concentration in brain of C57BL/6 mouse implanted with mouse B16-F10 cells at 50 mg/kg, ip measured after 1 hrs by UPLC-MS/MS analysis; type: ADME, organism-based; details: read-out: Ct
[27] = Drug concentration in plasma of C57BL/6 mouse implanted with mouse B16-F10 cells at 50 mg/kg, ip measured after 1 hrs by UPLC-MS/MS analysis; type: ADME, organism-based
[28] = Drug concentration in brain of C57BL/6 mouse implanted with mouse B16-F10 cells at 50 mg/kg, ip measured after 2 hrs by UPLC-MS/MS analysis; type: ADME, organism-based; details: read-out: Ct
[29] = Drug concentration in plasma of C57BL/6 mouse implanted with mouse B16-F10 cells at 50 mg/kg, ip measured after 2 hrs by UPLC-MS/MS analysis; type: ADME, organism-based
[30] = Drug concentration in heart of C57BL/6 mouse implanted with mouse B16-F10 cells at 50 mg/kg, ip measured after 4 hrs by UPLC-MS/MS analysis; type: ADME, organism-based; details: read-out: Ct
[31] = Drug concentration in spleen of C57BL/6 mouse implanted with mouse B16-F10 cells at 50 mg/kg, ip measured after 4 hrs by UPLC-MS/MS analysis; type: ADME, organism-based; details: read-out: Ct
[32] = Drug concentration in plasma of C57BL/6 mouse implanted with mouse B16-F10 cells at 50 mg/kg, ip measured after 4 hrs by UPLC-MS/MS analysis; type: ADME, organism-based
[33] = system: B16-F10; assay: Antitumor immunity against mouse B16-F10 cells implanted in allogenic BALB/c mouse assessed as increase in CD3+ T cells at 50 mg/kg, ip by flow cytometric analysis (reference value: 2.51%); type: functional
[34] = system: B16-F10; assay: Antitumor immunity against mouse B16-F10 cells implanted in allogenic BALB/c mouse assessed as increase in CD3+ CD4+ T cells percentage at 50 mg/kg, ip by flow cytometric analysis; type: functional, organism-based
[35] = system: B16-F10; assay: Antitumor activity against mouse B16-F10 cells implanted in allogenic BALB/c mouse assessed as decrease in PD-L1 mRNA level at 50 mg/kg, ip by qPCR analysis; type: functional, organism-based

AUCt [6]: 719 ng·h/mL
MRT inf [7]: 7.1 h
half-life [8]: 156 min
MRT inf [9]: 9.84 h
Tmax [10]: 2.4 h
Vz [11]: 39.163 L/kg
Cmax [12]: 1540 ng/mL
concentration at 0.5 h [17]: 4570 ng/mL
concentration at 0.5 h [18]: 134 ng/mL
concentration at 0.5 h [19]: 2.5 ng/mL
concentration at 0.5 h [20]: 910 ng/mL
concentration at 1 h [21]: 15.9 ng/mL
concentration at 1 h [22]: 1980 ng/mL
concentration at 1 h [23]: 193 ng/mL
concentration at 1 h [24]: 219 ng/mL
concentration at 1 h [25]: 28.4 ng/mL
concentration at 1 h [26]: 3 ng/mL
concentration at 1 h [27]: 1460 ng/mL
concentration at 2 h [28]: 4.2 ng/mL
concentration at 2 h [29]: 1400 ng/mL
concentration at 4 h [30]: 16.3 ng/mL
concentration at 4 h [31]: 7570 ng/mL
concentration at 4 h [32]: 1460 ng/mL
Compound: Cc1c(COc2cc(OCc3cccc(C#N)c3)c(CN3CCCCC3C(=O)NCCNC(=O)CCCC[C@@H]3SC[C@@H]4NC(=O)N[C@@H]43)cc2Cl)cccc1-c1ccccc1 (stereo not given in full)
inhibition [1]: 103%
Kd [2]: 218 nM
Kd [3]: 438 nM
Activity [4]: inactive
EC50 [5]: 920 nM
Activity [13]: 76.5%
Activity [14]: Active
Activity [15]: 39.1%
Activity [16]: Non-Toxic
Activity [33]: 24.9%
Activity [34]: Active
Activity [35]: Active
